Experimental data as given in US6080731A, “Dinucleoside-5', 5'-pyrophosphates administered to treat HIV” (Biosearch Italia, S.p.A., priority 1994, dated 2000).

Columns and labels:
[1] = Concentration of di-AZT-5',5'-P^1,P^2 -pyrophosphate and its metabolites in loaded human red blood cells; type: in vitro ADME; settings: 37° C., autologous plasma; for Concentration into human red blood cells: 10% hematocrit, erythrocytes loaded with di-AZT-pyrophosphate
Procedure: (§1) A two step procedure was used consisting of a first dialysis of the washed and packed erythrocytes (80% hematocrit) against 70 volumes of hemolysing buffer (5 mM Na2 HPO4 supplemented with 4 mM MgCl2, pH 7.2, 26 mOsm) for 35 minutes at 4° C. under gentle rotation. This step was followed by addition of 10-15 mM di-AZT-5',5'-P^1,P^2 -pyrcphosphate inside the dialysis bag and further dialysis for 15 minutes under the same conditions. Erythrocytes were then resealed by dialysing them for 40 minutes at 4° C. against phosphate-saline buffer, pH 7.4, supplemented with 10 mM glucose and adenosine, 310 mOsm. The loaded erythrocytes were then extensively washed with ice-cold aqueous NaCl (0.9% w/w) and incubated at 37° C. in autologous plasma at 10% hematocrit.
(§2) The concentration of the dinucleoside pyrophosphate and its metabolites in the plasma and red blood cells was determined at successive time intervals by using the following method.
At various times, 1 ml aliquots of the incubation mixture were withdrawn. After the separation of the erythrocytes from plasma, the two fractions were separately extracted.
100 Microliters of packed red blood cells (RBC) were added to 100 microliters of water, then 68 microliters of 3.7 M perchloric acid (PCA) were added under vigorous shaking. The sample was centrifuged and 140 microliters of the supernatant were neutralized with 30 microliters of 3 M potassium carbonate. The sample was then centrifuged to remove the formed precipitate.
(§3) 150 Microliters of the plasma fractions were treated with 50 microliters of 3.7 M PCA and 120 microliters of the supernatant were neutralized with 27 microliters of 3 M potassium carbonate and centrifuged. […] The solvent program was a linear gradient starting at 100% of buffer A (0.1 M KH2 PO4 with 5 mM tert-butylammonium hydroxide (TBA), pH 4.9) and increasing up to 100% buffer B (0.1 M KH2 PO4 with 5 mM TBA, in 40% (v/v) methanol in water, pH 4.9) in 30 minutes; 100% buffer B was maintained up to 50 minutes. The flow rate was 0.4 ml/min and the eluted compounds were monitored with a spectrophotometric detector set at 265 nm.

[2] = 50% cytotoxic concentration in MT-4 cells; type: cell-based; settings: human
Description: (§4) To confirm the anti-HIV activity of some dinucleoside-5',5'-P^1,P^2-pyrophosphates representative of this invention, invitro tests have been carried out on a HTLV-1 transformed cell line, MT-4, which is highly susceptible to and permissive for HIV infection. The inhibition of the HIV-induced cytopathic effect was used as the end point. The procedure of this test is essentially that described by R. Pauwels et al. "Rapid and automated tetrazolium-based calorimetric assay for the detection of anti-HIV compounds". Journal of Virological Methods, 20, (1988), 309-321.
(§5) Thymine-3'-azido-2',3'-dideoxy-D-riboside (AZT) was taken as control compound.

[3] = Concentration of di-AZT-5',5'-P^1,P^2 -pyrophosphate and its metabolites in human plasma incubated with loaded erythrocytes; type: in vitro ADME; settings: 37° C., autologous plasma, 10% hematocrit, released from loaded erythrocytes
Procedure: as §1, §2
At various times, 1 ml aliquots of the incubation mixture were withdrawn. After the separation of the erythrocytes from plasma, the two fractions were separately extracted. […]
as §3

HIV = assay: Anti-HIV in vitro activity: inhibition of the HIV-induced cytopathic effect in MT-4 cells; type: cell-based; settings: Human immunodeficiency virus 1, MT4, read-out: 50% effective concentration (IC50)
Description: as §4, §5

[4] = De-phosphorylation rate of encapsulated pro-drug; type: in vitro ADME; settings: pro-drug for encapsulation into erythrocytes

SMILES | Concentration into human red blood cells ([1]; 6 h) [µM] | Concentration into human red blood cells ([1]; 24 h) [µM] | CC50 [2] [nM] | Concentration in human plasma ([3]; 0 h) [µM] | Concentration in human plasma ([3]; 2 h) [µM] | Concentration in human plasma ([3]; 6 h) [µM] | Concentration in human plasma ([3]; 24 h) [µM] | IC50 (HIV) [nM] | Concentration into human red blood cells ([1]; 0 h) [µM] | Concentration into human red blood cells ([1]; 2 h) [µM] | Release from the erythrocytes ([1]; human red blood cells) | De-phosphorylation rate with respect to the respective monophosphate [4]
Cc1cn([C@H]2C[C@H](N=[N+]=[N-])[C@@H](CO)O2)c(=O)[nH]c1=O [AZT, thymine-3'-azido-2',3'-dideoxy-D-riboside, reference compound] | 600 | 100 | 70000 | 4.6 | 14.42 | 62.43 | 355.78 | 28 | – | – | – | –
Cc1cn([C@H]2C[C@H](N=[N+]=[N-])[C@@H](COP(=O)(O)O)O2)c(=O)[nH]c1=O [AZT-monophosphate, thymine-3'-azido-2',3'-dideoxy-D-riboside-5'-monophosphate] | 650 | 930 | – | 21.94 | 28.21 | 24.68 | 67.11 | – | 40 | 90 | – | –
Cc1cn([C@H]2C[C@H](N=[N+]=[N-])[C@@H](COP(=O)(O)OP(=O)(O)OC[C@H]3O[C@@H](n4cc(C)c(=O)[nH]c4=O)C[C@@H]3N=[N+]=[N-])O2)c(=O)[nH]c1=O [Compound 1, di-(thymine-3'-azido-2',3'-dideoxy-D-riboside)-5',5'-P^1,P^2-pyrophosphate] | 2900 | 1800 | > 100000 | 4.49 | 3.75 | 5.27 | 5.34 | 31 | 3900 | 4100 | released from the erythrocytes at a very low rate | –
O=c1[nH]c(=O)n([C@H]2C[C@H](O)[C@@H](COP(=O)(O)OP(=O)(O)OC[C@H]3O[C@@H](n4cc(F)c(=O)[nH]c4=O)C[C@@H]3O)O2)cc1F [Example 6, di-(5-fluorouracil-2'-deoxy-D-riboside)-5',5'-P^1,P^2-pyrophosphate] | – | – | – | – | – | – | – | – | – | – | – | lower de-phosphorylation rate with respect to the respective monophosphate
